Holding throughout (assay): relative viability (nuclei count vs DMSO), 5 days (fraction); higher = more cells survive
Compound in assay [1]: Cc1ccccc1C(C(=O)NC1CCCCC1)N(C(=O)Cn1ccnc1C)c1cccc(F)c1 [IDH-C35] + Cc1cc(Nc2cc(N3CCN(C)CC3)nc(Sc3ccc(NC(=O)C4CC4)cc3)n2)n[nH]1 [Tozasertib] (partner 0.1 µM)
In outline:
(§1)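 Relative viability is defined as nuclei in treated wells over nuclei in vehicle wells. Duplicate plates were run and medians reported. Lung cancer cell lines in 1536-well plates were dosed by pin tool one day after seeding, with one drug or with a fixed anchor-drug dose plus five library-drug doses (not always all listed) in √10 steps, and nuclei were counted after 5 days.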

Compound in assay [2]: CC1=C(C(=NN1)C)CC2=C(C3=C(S2)N(C(=O)N(C3=O)C)CC(C)C)C(=O)N4C[C@@H](CO4)O + CS(=O)(=O)CCNCc1ccc(-c2ccc3ncnc(Nc4ccc(OCc5cccc(F)c5)c(Cl)c4)c3c2)o1 [Lapatinib] (partner 2 µM)
In outline:
as §1

Compound in assay [3]: Cc1ccccc1C(C(=O)NC1CCCCC1)N(C(=O)Cn1ccnc1C)c1cccc(F)c1 [IDH-C35] + Nc1ncn([C@H]2C[C@H](O)[C@@H](CO)O2)c(=O)n1 [Decitabine] (partner 2 µM)
The essentials:
as §1

Compound in assay [4]: CC1=C(C(=NN1)C)CC2=C(C3=C(S2)N(C(=O)N(C3=O)C)CC(C)C)C(=O)N4C[C@@H](CO4)O + C[C@]1(O)C[C@@H](c2nc(-c3ccc4ccc(-c5ccccc5)nc4c3)c3c(N)nccn32)C1 [Linsitinib] (partner 1 µM)
In outline: as §1

Take UMC-11: the relative viability in assay [1] (first compound 0.08 µM) is 0.199; in assay [1] (first compound 0.253 µM), 0.198; in assay [1] (first compound 0.8 µM), 0.197; in assay [1] (first compound 2.53 µM) it was 0.198; in assay [1] (first compound 8 µM) it was 0.193; in assay [2] (first compound 0.0025 µM), 1.12. Besides, the relative viability came out at 1.03 in assay [2] (first compound 0.007906 µM); 0.957 in assay [2] (first compound 0.025 µM); 1.01 in assay [2] (first compound 0.07906 µM); 1.05 in assay [2] (first compound 0.25 µM); 0.572 in assay [3] (first compound 0.08 µM); 0.724 in assay [3] (first compound 0.253 µM). Moreover, the relative viability in assay [3] (first compound 0.8 µM) came to 0.576; in assay [3] (first compound 2.53 µM), 0.609; in assay [3] (first compound 8 µM) it was 0.619; in assay [4] (first compound 0.0025 µM), 1.01; in assay [4] (first compound 0.007906 µM), 1; in assay [4] (first compound 0.025 µM) it was 0.845. The relative viability in assay [4] (first compound 0.07906 µM) is 0.793; in assay [4] (first compound 0.25 µM), 0.767.

The values above are taken from the supplement of paper PMC10307832.
